Among the data in ChEMBL document CHEMBL1122959, “3-Hydroxy-3-methylglutaryl-coenzyme A reductase inhibitors. 1. Structural modification of 5-substituted 3,5-dihydroxypentanoic acids and their lactone derivatives” (J Med Chem, 1985) are inhibition, IC50 and Relative potency values, retold here.

The target in assay [1] is T1, 3-hydroxy-3-methylglutaryl-coenzyme A reductase (Rattus norvegicus) (UniProt P51639).
T1 sequence (whole entry): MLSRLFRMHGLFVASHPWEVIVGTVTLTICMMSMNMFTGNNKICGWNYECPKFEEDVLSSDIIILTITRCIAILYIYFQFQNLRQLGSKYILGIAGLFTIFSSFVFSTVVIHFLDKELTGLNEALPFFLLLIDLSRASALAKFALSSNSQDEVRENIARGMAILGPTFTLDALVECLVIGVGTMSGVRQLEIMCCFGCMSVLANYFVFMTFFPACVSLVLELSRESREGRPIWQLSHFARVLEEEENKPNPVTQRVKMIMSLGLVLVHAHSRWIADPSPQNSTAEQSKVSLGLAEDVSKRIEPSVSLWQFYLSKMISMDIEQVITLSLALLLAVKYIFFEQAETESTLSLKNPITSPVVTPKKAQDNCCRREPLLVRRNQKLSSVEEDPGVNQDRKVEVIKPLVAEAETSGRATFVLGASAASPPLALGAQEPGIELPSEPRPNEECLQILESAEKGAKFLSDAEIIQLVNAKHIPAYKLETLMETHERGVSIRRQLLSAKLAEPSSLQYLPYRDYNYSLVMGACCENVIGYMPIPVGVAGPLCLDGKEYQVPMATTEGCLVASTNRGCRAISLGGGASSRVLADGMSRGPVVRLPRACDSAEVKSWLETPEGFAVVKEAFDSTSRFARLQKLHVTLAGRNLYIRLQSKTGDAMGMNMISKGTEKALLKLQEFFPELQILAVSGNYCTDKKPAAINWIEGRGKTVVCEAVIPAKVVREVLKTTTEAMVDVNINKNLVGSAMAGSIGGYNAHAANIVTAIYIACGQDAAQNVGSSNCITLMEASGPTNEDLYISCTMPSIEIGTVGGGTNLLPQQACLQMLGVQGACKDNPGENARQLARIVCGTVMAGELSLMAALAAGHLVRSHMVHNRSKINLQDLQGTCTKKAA
The experiment in a line: Inhibitory activity against partially purified rat liver HMG CoA reductase at 1 ug/ml concentration.

In assay [2] the target is T1, 3-hydroxy-3-methylglutaryl-coenzyme A reductase (Rattus norvegicus). The experiment in a line: Inhibitory activity against partially purified rat liver HMG CoA reductase at 2 ug/ml concentration.
The target is the same in assay [3]. In words: Inhibition of partially purified rat liver HMG CoA reductase at 10 ug/ml concentration.
For assay [4] the target is unchanged. The experiment in a line: Inhibitory activity against partially purified rat liver HMG CoA reductase at 4 ug/ml concentration.
For assay [5] the target is unchanged. The experiment in a line: Inhibitory activity against partially purified rat liver HMG CoA reductase at 20 ug/ml concentration.
The target is the same in assay [6]. The experiment in a line: Inhibitory activity against partially purified rat liver HMG CoA reductase at 50 ug/ml concentration.
The target is the same in assay [7]. The experiment in a line: Inhibitory activity against partially purified rat liver HMG CoA reductase at 5 ug/ml concentration.
Assay [8] has as its target T2, 3-hydroxy-3-methylglutaryl-coenzyme A reductase (Rattus norvegicus, UniProt P51639).
T2 sequence (P51639 whole entry): T1 sequence (whole entry)
In words: In vitro inhibitory activity against HMG CoA reductase.

The target of assay [9] is T1, 3-hydroxy-3-methylglutaryl-coenzyme A reductase (Rattus norvegicus). The experiment in a line: Inhibitory activity against partially purified rat liver HMG CoA reductase at 12.5 ug/ml concentration.
For assay [10] the target is unchanged. In words: Inhibitory activity against partially purified rat liver HMG CoA reductase at 3.125 ug/ml concentration.
Assay [11] shares this target. The experiment in a line: Inhibitory activity against partially purified rat liver HMG CoA reductase at 0.625 ug/ml concentration.
For assay [12] the target is unchanged. The experiment in a line: Relative potency against HMG CoA reductase.
For assay [13] the target is unchanged. The experiment in a line: Inhibitory activity against partially purified rat liver HMG CoA reductase at 25 ug/ml concentration.
The target is the same in assay [14]. The experiment in a line: Inhibitory activity against partially purified rat liver HMG CoA reductase at 4 ug/mL concentration.
For assay [15] the target is unchanged. The experiment in a line: Inhibitory activity against partially purified rat liver HMG CoA reductase at 8 ug/ml concentration.
For assay [16] the target is unchanged. The experiment in a line: Inhibitory activity against partially purified rat liver HMG CoA reductase at 1 ug/mL concentration.
Assay [17] shares this target. In words: Inhibitory activity against partially purified rat liver HMG CoA reductase at 0.1 ug/ml concentration.
Assay [18] shares this target. In words: Inhibitory activity against partially purified rat liver HMG CoA reductase at 0.2 ug/ml concentration.
Assay [19] has the same target. The experiment in a line: Inhibitory activity against partially purified rat liver HMG CoA reductase at 0.4 ug/ml concentration.
Assay [20] has the same target. In words: Inhibitory activity against partially purified rat liver HMG CoA reductase at 0.8 ug/ml concentration.

As a reminder, the inhibition is the share of the control response that was lost under treatment. In general, IC50 refers to the concentration at which inhibition is half-maximal. The low end stands for higher potency, the high end for lower potency.

For the compound `O=C1C[C@H](O)C[C@@H](COc2ccc(Cl)cc2Cl)O1`, the inhibition in assay [1] is 21%; in [2] it was 24%; in assay [3], 21%; in [4] it was 18%.

`O=C1C[C@H](O)CC(CCC2CCCCC2)O1` (some centres not stated): the inhibition in assay [5] came to 17%; in [3], 6%; in [6] it was 34%; in assay [7], 23%.

On to `O=C1C[C@H](O)CC(CC[C@@H]2CC[C@H]3CCCC[C@@H]3C2)O1` (some centres not stated), for which the inhibition came out at 1% in assay [1], 28% in [9] and 13% in [7]. In addition, the IC50 in assay [8] was 90 µM.

Take `O=C1C[C@@H](O)C[C@H](/C=C\c2ccc(Cl)cc2Cl)O1`: the inhibition in assay [10] and in [11] was 0% each time.

On to `O=C1C[C@H](O)C[C@@H](/C=C/c2ccc(Cl)cc2Cl)O1` (racemic) [listing 1 of 2 here], for which the inhibition worked out at 13% in [1], 84% in [5], 64% in assay [3] and 41% in assay [7]. Further, the Relative potency in assay [12] was 0.08.

Take `C[C@]1(O)CC(=O)O[C@H](/C=C/c2ccc(Cl)cc2Cl)C1`: the inhibition was 11% in assay [1], 21% in assay [2], 61% in assay [3] and 36% in assay [4]. The compound further returned an IC50 in assay [8] of 20 µM. In assay [12], the Relative potency came out at 0.09.

As for `O=C1C[C@H](O)CC(CCC23CC4CC(CC(C4)C2)C3)O1` (some centres not stated), the inhibition in assay [1] was 18%; in assay [9], 28%; in assay [7], 16%.

Turning to `C[C@@]1(O)CC(=O)O[C@H](/C=C/c2ccc(Cl)cc2Cl)C1`, the inhibition came out at 15% in [13], 3% in assay [2], 5% in [3] and 7% in assay [4].

Consider `O=C1C=C(O)OC(/C=C/c2ccc(Cl)cc2Cl)C1` (configuration not stated), for which the inhibition in assay [2] is 0%; in assay [3], 12%; in [6], 15%.

Consider `O=C1C[C@@H](O)C[C@@H](/C=C/c2ccc(Cl)cc2Cl)O1` (racemic), for which the inhibition in assay [5] was 17%; in assay [2] it was 4%; in assay [3], 27%; in assay [6], 18%; in [7], 6%.

Turning to `O=C1C[C@H](O)C[C@@H](CC[C@@H]2CCC[C@@H]3CCCC[C@@H]32)O1`, half-maximal inhibition in assay [8] (IC50) was put at 107 µM. Besides, the inhibition in [5] was found to be 44%; in assay [3], 22%; in assay [6] it was 70%; in [7] it was 15%.

`NC(=O)C[C@H](O)C[C@H](O)/C=C/c1ccc(Cl)cc1Cl`: the inhibition in [1], in [14], in assay [15] and in assay [2] was 0% in each case.

Take `O=C1C[C@H](O)C[C@@H](/C=C/c2ccccc2)O1`: the inhibition is 14% in [5], 15% in assay [3], 31% in assay [6] and 3% in assay [7].

`O=C1C[C@H](O)C[C@@H](CCc2ccc(Cl)cc2Cl)O1`: the inhibition came out at 29% in assay [1], 38% in [2], 80% in assay [3] and 57% in assay [7]. This compound showed an IC50 in assay [8] of 15.2 µM.

`CC[C@H](C)C(=O)O[C@H]1CCC=C2C=C[C@H](C)[C@H](CC[C@@H]3C[C@@H](O)CC(=O)O3)[C@H]21` [MEVASTATIN] returned an IC50 in assay [8] of 0.01 µM. Also, in assay [12], the Relative potency was found to be 100.

Turning to `O=C1C[C@H](O)CC(c2cccc3ccccc23)O1` (some centres not stated), the inhibition in assay [5] was determined as 7%; in assay [3] it was 9%; in assay [6], 18%; in assay [7], 16%.

With `O=C1C[C@H](O)CC(CCCc2cccc3ccccc23)O1` (some centres not stated), the inhibition in [13] stood at 35%; in assay [2], 11%; in assay [3], 25%; in [7], 7%.

`O=C1C[C@H](O)C[C@@H](C#Cc2ccc(Cl)cc2Cl)O1`: the inhibition in [10] came out at 8%; in assay [11], 0%.

Turning to `CO[C@@H]1C[C@H](O)C[C@@H](/C=C/c2ccc(Cl)cc2Cl)O1`, the inhibition in [15] was determined as 6%; in [2], 0%; in [3] it was 0%; in assay [4], 0%.

Consider `O=C1C[C@H](O)C[C@@H](/C=C/c2ccc(Cl)cc2Cl)O1` (stereo in doubt; 6a(+)) [listing 1 of 2 here], for which the inhibition in assay [1] was 26%; in assay [5], 86%; in assay [2], 45%; in assay [3] it was 72%; in [7] it was 66%. In addition, in assay [12], the Relative potency worked out at 0.16.

With `O=C1C[C@H](O)C[C@@H](C2CCCCC2)O1`, the inhibition came out at 6% in assay [5], 0% in assay [3], 36% in assay [6] and 1% in [7].

Turning to `C[C@]1(O)CC(=O)O[C@H](CCc2ccc(Cl)cc2Cl)C1`, the inhibition in [1] was 14%; in assay [15], 63%; in assay [2], 26%; in assay [4] it was 37%. In [8], this compound had an IC50 of 19.8 µM. The Relative potency in [12] is 0.08.

Take `COC(/C=C/c1ccc(Cl)cc1Cl)CC(O)CC(=O)O` (configuration not stated): the inhibition in [16], in assay [2], in [3] and in assay [7] was 0% throughout.

With `O=C1C[C@H](O)CC(c2ccc(Cl)cc2Cl)O1` (some centres not stated), the inhibition in [5] was found to be 27%; in [3] it was 26%; in [6], 23%; in assay [7], 4%.

Consider `O=C1C[C@H](O)C[C@@H](/C=C/c2ccc(Cl)cc2Cl)O1` (racemic) [listing 2 of 2 here], for which half-maximal inhibition in [8] (IC50) required 22 µM.

In the case of `O=C1C[C@H](O)C[C@@H](C=C2c3ccccc3C=Cc3ccccc32)O1`, the inhibition is 20% in [17], 34% in assay [18] and 42% in [19]. Inhibition in assay [8] was half-maximal at 1.6 µM (IC50). The compound further gave a Relative potency in assay [12] of 0.9.

Regarding `O=C1C[C@H](O)CC(CCc2cccc3ccccc23)O1` (some centres not stated), the midpoint of inhibition in assay [8], the IC50, lay at 129 µM. Moreover, the inhibition in [5] was 45%; in assay [3], 29%; in assay [6], 61%; in assay [7], 19%.

`O=C1C[C@H](O)C[C@@H](/C=C/c2ccc(Cl)cc2Cl)O1` (stereo in doubt; 6a(-)): the inhibition in assay [1], in assay [15], in [2] and in assay [4] was 0% throughout.

Regarding `O=C1C[C@H](O)CC(C=C(c2ccccc2)c2ccccc2)O1` (some centres not stated), the inhibition was determined as 22% in assay [17], 36% in assay [18], 20% in [20] and 14% in assay [19].

As to `CC1=CC(=O)OC(/C=C/c2ccc(Cl)cc2Cl)C1` (configuration not stated), the inhibition in assay [13] was found to be 5%; in [2], 0%; in assay [3] it was 3%; in assay [4], 3%.

In turn, `O=C1C[C@H](O)C[C@@H](/C=C/c2ccc(Cl)cc2Cl)O1` (stereo in doubt; 6a(+)) [listing 2 of 2 here] showed a concentration for half-maximal inhibition (IC50) in assay [8] of 10.8 µM.
